Key:
[1] = tested on: plant; conditions: cited from earlier work
[2] = tested on: Pseudomonas sp. VM422; assay: zinc resistance phenotype, MIC on Tris minimal medium; assay type: cell-based; conditions: strain VM422
[3] = tested on: yellow lupine; assay: plant growth with toluene during hydroponic cultivation; conditions: non-inoculated plants
[4] = tested on: Lupinus luteus; assay: toxicity test: toluene on growth of Lupinus luteus; conditions: hydroponic, 0-3000 mg per liter tested, all other exposed plants dead
[5] = tested on: Iris pseudocarus; assay: survival of plants in the presence of 2,4-D; assay type: in vivo; conditions: 5 mg/l 2,4-D

Structure (SMILES): ClC(Cl)=C(Cl)Cl [PER]
- Fate in plant (toxic, build up, or volatile) [1]: Volatile

Structure (SMILES): [Zn] [zinc]
- MIC value for zinc [2]: 20 mM

Structure (SMILES): Cc1ccccc1 [toluene]
- toluene dose at which non-inoculated controls showed growth reduction [3]: 100 mg/L
- toluene concentration at which the exposed plant was not dead at the end of the third week [4]: 100 mg per liter

Structure (SMILES): ClC=C(Cl)Cl [TCE, tri-chloro-ethylene]
- Fate in plant (toxic, build up, or volatile) [1]: Volatile, Build-up

Structure (SMILES): O=C(O)COc1ccc(Cl)cc1Cl [2,4-D, 2,4-dichlorophenoxyacetic acid]
- Dead plants, Non-inoculated plants + 2,4-D [5]: 75%
- Healthy plants, Non-inoculated plants + 2,4-D [5]: 25%

— patent US20070101461A1, “Method for Improving Phytoremediation Treatment of a Contaminated Medium” (priority 2001, published 2007)
